For series [1] the following is noted: in vivo biological studies, cited from earlier work.
The subject of another series is Salmonella spp. Description: agar spot / disk diffusion plate method. The note with it: spot 10 μl, inoculum 10^8 CFU/ml, (Io) and (Ir) 100 mM, average of three points. In kind it is cell-based. The procedure:
(§1) The antimicrobial activity of the substances (Ii), (Il), (Im), (In), (Io), (Ip), (Iq), (Ir), (Is) was evaluated towards 11 clinically isolated Gram-negative and Gram-positive bacterial strains, mostly multi-antibiotic resistant (MDR), and towards two types of yeast of the genus Candida.
(§2) A plate method was used (agar spot method or disk diffusion assay—spot quantity 10 μl, bacterial inoculum 10^8 CFU/ml and DMSO negative control): the (Io) and (Ir) concentration used was 100 mM. The antimicrobial activity was evaluated by measuring the diameter of the microbial growth inhibition halo expressed in millimetres, the reported values being the average of three experimental points.

Series [2] deals with Pseudomonas aeruginosa MDR. Description: agar spot / disk diffusion plate method. The class given is cell-based. The note with it: spot 10 μl, inoculum 10^8 CFU/ml, (Io) and (Ir) 100 mM, average of three points. As to the method:
as §1, §2
(In agar diffusion tests the substance spreads into inoculated agar from a disc or well.)

A further series has as its system Candida albicans. As to the kind of experiment: agar spot / disk diffusion plate method. Particulars: spot 10 μl, inoculum 10^8 CFU/ml, (Io) and (Ir) 100 mM, average of three points. In kind it is cell-based. The procedure:
as §1, §2

The test system of series [3] is Staphylococcus aureus MRSA. As to the kind of experiment: agar spot / disk diffusion plate method. Particulars: spot 10 μl, inoculum 10^8 CFU/ml, (Io) and (Ir) 100 mM, average of three points. In kind it is cell-based. The procedure: as §1, §2
The next series deals with Candida parapsilosis. Description: agar spot / disk diffusion plate method. In kind it is cell-based. Particulars: spot 10 μl, inoculum 10^8 CFU/ml, (Io) and (Ir) 100 mM, average of three points. The procedure:
as §1, §2

For series [4], the system named is Staphylococcus haemolyticus MDR. As to the kind of experiment: agar spot / disk diffusion plate method. In kind it is cell-based. Particulars: spot 10 μl, inoculum 10^8 CFU/ml, (Io) and (Ir) 100 mM, average of three points. The procedure:
as §1, §2

The test system of the next series is Escherichia coli. Description: agar spot / disk diffusion plate method. In kind it is cell-based. The note with it: spot 10 μl, inoculum 10^8 CFU/ml, (Io) and (Ir) 100 mM, average of three points. As to the method:
as §1, §2

Series [5] concerns Acinetobacter baumannii MDR. As to the kind of experiment: agar spot / disk diffusion plate method. In kind it is cell-based. The note with it: spot 10 μl, inoculum 10^8 CFU/ml, (Io) and (Ir) 100 mM, average of three points. As to the method:
as §1, §2

The conditions of series [6]: compared with taurine and hypotaurine; cited from earlier work.
Series [7] concerns 11 clinically isolated Gram-negative and Gram-positive bacterial strains, mostly MDR, and two types of yeast of the genus Candida. Description: antimicrobial activity towards clinical isolates and yeasts (overall). The class given is cell-based. The note with it: pathogens resistant to β-lactam antibiotics or multi-drug resistant, and yeasts. The procedure: as §1, §2
The test system of series [8] is methicillin-resistant Staphylococcus aureus strain (MRSA). Description: MIC by microdilutions in broth. In kind it is cell-based. The procedure: The minimum inhibitory concentration (MIC) of the substances (Io) and (Ir) towards the methicillin-resistant Staphylococcus aureus strain (MRSA) was then evaluated by the method of microdilutions in broth: it should be noted that Staphylococcus aureus (MRSA) is one of the main multi-resistant bacteria causing serious problems in hospitals. The measured MICs were 6.25 mmol/l and 1.56 mmol/l for (Io) and (Ir) respectively.
On the technique in general: Broth dilution looks for growth in wells or tubes with falling amounts of substance.

Series [9] concerns Enterococcus faecalis MDR. As to the kind of experiment: agar spot / disk diffusion plate method. In kind it is cell-based. Particulars: spot 10 μl, inoculum 10^8 CFU/ml, (Io) and (Ir) 100 mM, average of three points. As to the method: as §1, §2
Another series concerns Enterococcus faecium MDR. As to the kind of experiment: agar spot / disk diffusion plate method. In kind it is cell-based. Particulars: spot 10 μl, inoculum 10^8 CFU/ml, (Io) and (Ir) 100 mM, average of three points. As to the method:
as §1, §2

Another series relates to Serratia marcescens. As to the kind of experiment: agar spot / disk diffusion plate method. The class given is cell-based. The note with it: spot 10 μl, inoculum 10^8 CFU/ml, (Io) and (Ir) 100 mM, average of three points. As to the method: as §1, §2
Another series relates to Klebsiella pneumonite. Description: agar spot / disk diffusion plate method. The class given is cell-based. The note with it: spot 10 μl, inoculum 10^8 CFU/ml, (Io) and (Ir) 100 mM, average of three points. As to the method: as §1, §2
The next series concerns Klebsiella oxytoca. Description: agar spot / disk diffusion plate method. The class given is cell-based. The note with it: spot 10 μl, inoculum 10^8 CFU/ml, (Io) and (Ir) 100 mM, average of three points. The procedure: as §1, §2

The structures appear in SMILES notation. Converted amounts (≈) assume the structure as drawn. “Also recorded” adds a separate entry of the source.

We go through ten compounds from patent US20090192308A1, “1,5-DIHYDRO-2H-PYRROL-2-ONE TRICYCLIC DERIVATIVES HAVING ANTI-INFECTIVE ACTIVITY” (CPC BIOTECH S. r.l., priority 2008, published 2009).

Regarding `O=C1C2=C(SCCN2)C2CSCCN12` (stereo not drawn) [Ia, 3,4,7,8,10,10a-hexahydro-2H,5H-pyrrolo[2,1-c:3,4-b′]bis[1,4]thiazin-5-one, reference compound], in series [1], the “antioxidant properties in vivo (in words)” value is given as “considerable antioxidant properties”. Also, the “toxicity in vivo (in words)” value in [1] (high doses) was “total non-toxicity even at high doses”. The “diameter of the microbial growth inhibition halo” value was 3 millimetres in the series on Salmonella spp.; less than 2 millimetres in [2]; 6 millimetres with Candida albicans; 4 millimetres in series [3]; 5 millimetres in the series on Candida parapsilosis; less than 2 millimetres in series [4]. The “diameter of the microbial growth inhibition halo” value with Escherichia coli was less than 2 millimetres; in [5], 4 millimetres. Also, the “antioxidant activity (in words)” value in series [6] was “strong antioxidant activity”.

For `CN1CCSC2=C1C(=O)N1CCSCC21` (stereo not drawn) [Ii], the “antibiotic activity (in words)” value in series [7] is given as “have shown antibiotic activity”.

As to `CCN1CCSC2=C1C(=O)N1CCSCC21` (stereo not drawn) [Il], the “antibiotic activity (in words)” value in series [7] was “have shown antibiotic activity”.

Take `CCCN1CCSC2=C1C(=O)N1CCSCC21` (stereo not drawn) [Im]: the “antibiotic activity (in words)” value in series [7] was “have shown antibiotic activity”.

Regarding `CC(C)N1CCSC2=C1C(=O)N1CCSCC21` (stereo not drawn) [In], the “antibiotic activity (in words)” value in series [7] is on record as “have shown antibiotic activity”.

Consider `CC(C)=CCN1CCSC2=C1C(=O)N1CCSCC21` (stereo not drawn) [Io], for which, in [8], the “minimum inhibitory concentration (MIC)” value is 6.25 mM (≈ 1850 µg/mL). In addition, the “diameter of the microbial growth inhibition halo” value in the series with Salmonella spp. is listed as 10 millimetres; in series [2], 11 millimetres; with Candida albicans it was 10 millimetres; in [3], 11.4 millimetres; in series [9] it was 9 millimetres; in the series with Candida parapsilosis, 8 millimetres. Further, the “diameter of the microbial growth inhibition halo” value in [4] was found to be 13 millimetres; with Enterococcus faecium MDR, 8 millimetres; with Serratia marcescens, 7 millimetres; in the series on Escherichia coli it was 12 millimetres; in the series on Klebsiella pneumonite, 10 millimetres; in the series on Klebsiella oxytoca, 8.6 millimetres. The “diameter of the microbial growth inhibition halo” value in [5] was 11 millimetres. In addition, in series [7], the “antibiotic activity (in words)” value was “have shown antibiotic activity”.

For `O=C1C2=C(SCCN2Cc2ccccc2)C2CSCCN12` (stereo not drawn) [Ip], the “antibiotic activity (in words)” value in series [7] is reported as “have shown antibiotic activity”.

In the case of `O=C1C2=C(SCCN2CCc2ccccc2)C2CSCCN12` (stereo not drawn) [Iq], the “antibiotic activity (in words)” value in [7] was “have shown antibiotic activity”.

`CC(C)=CCC/C(C)=C/CN1CCSC2=C1C(=O)N1CCSCC21` (stereo not drawn) [Ir]: the “minimum inhibitory concentration (MIC)” value in series [8] came to 1.56 mM (≈ 569 µg/mL). Also, the “diameter of the microbial growth inhibition halo” value in the series on Salmonella spp. is on record as 11 millimetres; in series [2], 12 millimetres; in the series with Candida albicans, 13 millimetres; in series [3], 18.6 millimetres; in series [9], 13.7 millimetres; with Candida parapsilosis, 9.8 millimetres. Besides, the “diameter of the microbial growth inhibition halo” value is reported as 15 millimetres in series [4]; 14.3 millimetres in the series with Enterococcus faecium MDR; 11 millimetres in the series with Serratia marcescens; 12 millimetres in the series on Escherichia coli; 11.5 millimetres in the series with Klebsiella pneumonite; 9.8 millimetres in the series on Klebsiella oxytoca. In addition, in series [5], the “diameter of the microbial growth inhibition halo” value was determined as 13 millimetres. Besides, the “antibiotic activity (in words)” value in series [7] was “have shown antibiotic activity; also recorded: best activity characteristics for the widest spectrum; also recorded: excellent wide spectrum antibiotic activity”.

Regarding `O=C1C2=C(SCCN2c2ccc(-c3ccccc3)cc2)C2CSCCN12` (stereo not drawn) [Is], the “antibiotic activity (in words)” value in series [7] was “have shown antibiotic activity”.
